Measured values from PMC8219695 (Nature Communications, 2021).
Several values for one entry are separate records, joined by “and”; a condition that tells them apart may be missing. Equal entries are not always repeated.

Assays:
CD1 mice = assay: Tail-flick antinociception in CD1 mice; format: in vivo, mouse; settings: sc; for Tail flick (%MPE) / Tail flick latency: individual animals; for Tail flick (%MPE), average / Tail flick latency in secs, Av / Tail flick latency in secs, av: average of 8 animals
mMOR [1] = target: T1, mMOR (Mus musculus, UniProt P42866); assay: CAMYEL BRET cAMP agonist assay at mMOR; format: cell-based; settings: mMOR, single replicates, source data Fig 6b
T1 construct: signal peptide (heterologous, not specified) (N); expressed in transfected cells; pcDNA3.1(+) construct made in house

hMOR = target: T2, hMOR (Homo sapiens, UniProt P35372); assay: CAMYEL BRET cAMP agonist assay at hMOR; format: cell-based; settings: hMOR, single replicates, source data Fig 6c
T2 construct: expressed in transfected cells; plasmid a gift from Dr. Nevin Lambert

mMOR [2] = target: T1, mMOR; assay: BRET-based Nb33 recruitment assay at mMOR; format: cell-based; settings: single replicates, source data Fig 7a
[3] = Log[drug] (M) -13, cAMP inhibition as % of DAMGO

T1 sequence (P42866 whole entry): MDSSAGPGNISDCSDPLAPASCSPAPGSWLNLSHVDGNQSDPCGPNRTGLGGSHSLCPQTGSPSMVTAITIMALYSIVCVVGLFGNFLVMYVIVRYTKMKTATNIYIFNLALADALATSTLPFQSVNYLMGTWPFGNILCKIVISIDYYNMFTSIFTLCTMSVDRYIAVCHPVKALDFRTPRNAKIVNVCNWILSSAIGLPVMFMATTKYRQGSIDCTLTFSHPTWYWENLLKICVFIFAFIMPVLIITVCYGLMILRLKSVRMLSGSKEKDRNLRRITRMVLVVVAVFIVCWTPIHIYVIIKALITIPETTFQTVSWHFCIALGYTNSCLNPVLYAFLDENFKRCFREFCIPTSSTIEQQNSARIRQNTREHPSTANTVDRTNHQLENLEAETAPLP
T2 sequence (P35372 whole entry): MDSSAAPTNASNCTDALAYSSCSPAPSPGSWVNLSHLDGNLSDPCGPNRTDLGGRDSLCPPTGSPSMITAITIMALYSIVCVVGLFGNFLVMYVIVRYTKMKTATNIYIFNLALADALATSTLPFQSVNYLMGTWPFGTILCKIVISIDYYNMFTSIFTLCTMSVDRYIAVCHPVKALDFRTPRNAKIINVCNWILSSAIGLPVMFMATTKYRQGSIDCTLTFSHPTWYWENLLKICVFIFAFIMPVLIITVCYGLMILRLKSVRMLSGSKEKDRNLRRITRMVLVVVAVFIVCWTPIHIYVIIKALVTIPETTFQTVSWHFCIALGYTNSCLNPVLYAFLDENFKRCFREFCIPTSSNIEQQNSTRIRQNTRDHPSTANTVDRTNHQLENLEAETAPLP

Q: `CN1CC[C@]23c4c5ccc(O)c4O[C@H]2[C@@H](O)C=C[C@H]3[C@H]1C5` [Morphine, morphine, reference compound] was tested. Which “Tail flick (%MPE)” value (CD1 mice; Fig 9b, Morphine 10 mg/kg) did it give?
A: 32.79 %MPE and 42.86 %MPE and 100.00 %MPE (6×) and 61.73 %MPE and 52.00 %MPE

Q: What about the Tail flick latency (CD1 mice; Fig 9b, Morphine 10 mg/kg) of the same compound?
A: 5.9 and 6 and 10 (6×) and 6.9 and 6.4

Q: Which cAMP % (mMOR [1]; Log[drug] (M) -5) does the source give for `C[C@@H](NC(=O)[C@@H](N)Cc1ccc(O)cc1)C(=O)NCC(=O)N(C)[C@@H](Cc1ccccc1)C(=O)NCCO` [DAMGO, [D-Ala^2, N-Me-Phe^4, Gly^5-ol]-enkephalin, reference compound] here?
A: 102.015% and 97.5784% and 104.579% and 96.6295% and 98.3687% and 104.58% and 107.049% and 113.123% and 108.981%

Q: What about the cAMP % (mMOR [1]; Log[drug] (M) -6) of the same compound?
A: 105.759% and 89.6935% and 102.343% and 97.3213% and 106.448% and 102.195% and 98.7916% and 100.678% and 92.5396%

Q: And the cAMP % (mMOR [1]; Log[drug] (M) -7)?
A: 94.7459% and 89.7557% and 84.4404% and 103.092% and 95.8909% and 105.68% and 91.1195% and 91.3937% and 91.5037%

Q: What about the cAMP % (mMOR [1]; Log[drug] (M) -8) of the same compound?
A: 54.4279% and 44.3207% and 58.3553% and 86.2498% and 84.9633% and 88.7212% and 82.7217% and 81.9867% and 95.6687%

Q: What about the cAMP % (mMOR [1]; Log[drug] (M) -9) of the same compound?
A: 14.6461% and 18.37% and 18.8483% and 47.9% and 59.4105% and 56.9807% and 36.8388% and 43.8092% and 46.1925%

Q: What about the cAMP % (mMOR [1]; Log[drug] (M) -10) of the same compound?
A: 1.728% and 0.08907% and -1.817% and 16.1543% and 6.811% and 19.2753% and 3.3167% and 1.639% and 10.5208%

Q: And the cAMP % (mMOR [1]; Log[drug] (M) -11)?
A: 6.094% and 2.441% and 8.528% and 5.436% and 3.7044% and 1.349% and 1.812% and -1.084% and -0.7282%

Q: What about the cAMP % (mMOR [1]; [3]) of the same compound?
A: -0.3434% and 15.5805% and 1.417% and -1.196% and 0.717% and 0.4788% and 1.6944% and 5.324% and 4.584%

Q: What about the cAMP % (hMOR; Log[drug] (M) -5) of the same compound?
A: 103.124% and 109.477% and 102.684% and 110.427% and 108.861% and 108.591% and 112.306% and 111.09%

Q: And the cAMP % (hMOR; Log[drug] (M) -6)?
A: 98.2575% and 92.1607% and 109.669% and 106.978% and 96.9047% and 104.556% and 112.319% and 93.9893% and 98.3933%

Q: What about the cAMP % (hMOR; Log[drug] (M) -7) of the same compound?
A: 84.826% and 103.003% and 98.5438% and 92.203% and 94.9009% and 88.7302% and 91.8158% and 88.9226% and 95.649%

Q: And the cAMP % (hMOR; Log[drug] (M) -8)?
A: 90.1183% and 95.617% and 94.9621% and 80.7074% and 80.5991% and 79.7704% and 101.871%

Q: What about the cAMP % (hMOR; Log[drug] (M) -9) of the same compound?
A: 83.2929% and 84.9251% and 85.9398% and 87.1639% and 70.6227% and 86.8862% and 70.8595%

Q: And the cAMP % (hMOR; Log[drug] (M) -10)?
A: 23.9872% and 31.9271% and 31.1042% and 26.2749% and 20.3118% and 16.9632% and 5.794% and 13.2278% and 15.6275%

Q: And the cAMP % (hMOR; Log[drug] (M) -11)?
A: 7.017% and -4.712% and 3.0598% and 13.9517% and -4.528% and 3.447% and 8.388% and -3.773% and -4.615%

Q: And the cAMP % (hMOR; [3])?
A: 1.163% and -6.717% and 5.554% and 6.145% and -10.7075% and 4.5627% and 2.101% and 2.953% and 0.8452%

Q: And the “Nb33 BRET assay at mMOR, response” value (mMOR [2]; Log[drug] (M) -4)?
A: 116.548 and 99.0991 and 123.097 and 102.778 and 111.876 and 86.5818 and 91.4453 and 105.421 and 94.7199 and 96.8839 and 110.228 and 105.758 and 96.6672 and 105.453 and 97.0797 and 106.37 and 115.431 and 97.3489 and 102.87 and 112.822 and 97.3627

Q: What about the “Nb33 BRET assay at mMOR, response” value (mMOR [2]; Log[drug] (M) -5) of the same compound?
A: 78.3004 and 105.49 and 93.3001 and 92.3549 and 96.5229 and 94.3135 and 107.346 and 108.338 and 93.8039 and 95.4962 and 95.2898 and 96.1807 and 98.423 and 95.5858 and 88.3338 and 114.596 and 90.0997 and 91.8485 and 91.211 and 101.524 and 97.9528

Q: And the “Nb33 BRET assay at mMOR, response” value (mMOR [2]; Log[drug] (M) -8)?
A: 25.6157 and -0.9817 and 2.276 and 16.2956 and 7.2069 and 3.257 and 8.405 and 5.376 and 16.5535 and 18.8366 and 6.195 and 12.7572 and 5.664 and 5.763 and 13.2066 and 17.6481

Q: And the “Nb33 BRET assay at mMOR, response” value (mMOR [2]; Log[drug] (M) -9)?
A: 2.545 and 18.2179 and 1.398 and 13.71 and 1.7362 and 12.589 and -5.813 and 7.089 and -10.8919 and 4.229 and 0.1289 and 0.7333 and 3.575 and -0.9155 and 34.3413 and 6.961 and -1.352 and 3.399 and 3.853 and 3.842 and 2.552

Q: And the “Nb33 BRET assay at mMOR, response” value (mMOR [2]; Log[drug] (M) -10)?
A: 3.45 and -1.0779 and -15.1434 and 16.2214 and 5.631 and -0.462 and -5.169 and -3.138 and 4.714 and -1.576 and 1.587 and 11.4832 and -0.3739 and -1.213 and -14.9335 and -0.4874 and 0.03891 and 0.4485 and -4.142 and 2.431 and 1.7112

Q: Which “%MPE” value (CD1 mice; 5 mg/kg, 15 min) does the source give for `CC[C@@H]1CN2CC[C@@]3(O)C(=Nc4cc(Cl)cc(OC)c43)[C@@H]2C[C@@H]1/C(=C\OC)C(=O)OC` [11-Cl-7OH] here?
A: 2.8 %MPE

Q: And the “Tail flick (%MPE), average” value (CD1 mice; 5 mg/kg, 15 min)?
A: 2.3 %MPE

Q: And the “Tail flick latency in secs, Av” value (CD1 mice; 5 mg/kg, 15 min)?
A: 3.3 s

Q: What about the “Tail flick (%MPE)” value (CD1 mice; 5 mg/kg, 15 min) of the same compound?
A: -5.1 %MPE and -18.5 %MPE and 0.7 %MPE and 1.6 %MPE (2×) and 16.4 %MPE and 17.5 %MPE and 4.0 %MPE

Q: And the “Tail flick latency” value (CD1 mice; 5 mg/kg, 15 min)?
A: 2.75 secs and 2.65 secs and 2.95 secs and 3.7 secs (2×) and 4.4 secs and 3.4 secs and 2.8 secs

Q: What about the “%MPE” value (CD1 mice; 5 mg/kg, 30 min) of the same compound?
A: 1.6 %MPE

Q: And the “Tail flick (%MPE), average” value (CD1 mice; 5 mg/kg, 30 min)?
A: 1.3 %MPE

Q: And the “Tail flick latency in secs, Av” value (CD1 mice; 5 mg/kg, 30 min)?
A: 3.2 s

Q: And the “Tail flick (%MPE)” value (CD1 mice; 5 mg/kg, 30 min)?
A: -2.2 %MPE and -3.2 %MPE and 0.7 %MPE and -10.9 %MPE and 7.5 %MPE and 4.7 %MPE and 10.0 %MPE and 4.0 %MPE

Q: And the “Tail flick latency” value (CD1 mice; 5 mg/kg, 30 min)?
A: 2.95 secs (2×) and 3.6 secs and 2.9 secs and 3.8 secs and 3.9 secs and 2.8 secs (2×)

Q: And the “%MPE” value (CD1 mice; 5 mg/kg, 60 min)?
A: 3.3 %MPE

Q: And the “Tail flick latency in secs, Av” value (CD1 mice; 5 mg/kg, 60 min)?
A: 3.3 s

Q: And the “Tail flick (%MPE)” value (CD1 mice; 5 mg/kg, 60 min)?
A: -2.9 %MPE and -16.1 %MPE and 7.0 %MPE and -1.6 %MPE and 1.5 %MPE and -10.9 %MPE and 21.3 %MPE and 20.0 %MPE

Q: What about the “Tail flick latency” value (CD1 mice; 5 mg/kg, 60 min) of the same compound?
A: 2.9 secs (2×) and 2.8 secs and 3.4 secs (2×) and 3.5 secs and 3.7 secs and 4 secs

Q: And the “%MPE” value (CD1 mice; 25 mg/kg, 15 min)?
A: 2.83 %MPE

Q: What about the “Tail flick (%MPE), average” value (CD1 mice; 25 mg/kg, 15 min) of the same compound?
A: 2.6 %MPE

Q: And the “Tail flick latency in secs, av” value (CD1 mice; 25 mg/kg, 15 min)?
A: 2.9 s

Q: And the “Tail flick (%MPE)” value (CD1 mice; 25 mg/kg, 15 min)?
A: 12.5 %MPE and -0.8 %MPE and 0.7 %MPE and -0.7 %MPE (2×) and 10.4 %MPE and -3.5 %MPE and 2.7 %MPE

Q: What about the “Tail flick latency” value (CD1 mice; 25 mg/kg, 15 min) of the same compound?
A: 3.0 secs (2×) and 3.5 secs and 2.8 secs and 2.6 secs (2×) and 3.1 secs and 2.9 secs

Q: And the “%MPE” value (CD1 mice; 25 mg/kg, 30 min)?
A: 5.91 %MPE

Q: What about the “Tail flick (%MPE), average” value (CD1 mice; 25 mg/kg, 30 min) of the same compound?
A: 5.5 %MPE

Q: What about the “Tail flick latency in secs, av” value (CD1 mice; 25 mg/kg, 30 min) of the same compound?
A: 3.1 s

Q: What about the “Tail flick (%MPE)” value (CD1 mice; 25 mg/kg, 30 min) of the same compound?
A: 12.5 %MPE and -11.5 %MPE and 9.0 %MPE and 3.6 %MPE and 10.1 %MPE and 10.4 %MPE and 3.5 %MPE and 6.8 %MPE

Q: What about the “Tail flick latency” value (CD1 mice; 25 mg/kg, 30 min) of the same compound?
A: 3.0 secs and 2.8 secs and 3.4 secs (2×) and 3.3 secs and 3.1 secs (2×) and 3.2 secs

Q: And the “%MPE” value (CD1 mice; 25 mg/kg, 60 min)?
A: 6.34 %MPE

Q: What about the “Tail flick (%MPE), average” value (CD1 mice; 25 mg/kg, 60 min) of the same compound?
A: 6.0 %MPE

Q: What about the “Tail flick latency in secs, av” value (CD1 mice; 25 mg/kg, 60 min) of the same compound?
A: 3.2 s

Q: What about the “Tail flick (%MPE)” value (CD1 mice; 25 mg/kg, 60 min) of the same compound?
A: 7.5 %MPE and -7.7 %MPE and 10.3 %MPE and 2.1 %MPE and 12.2 %MPE and 22.1 %MPE and 0.7 %MPE (2×)

Q: And the “Tail flick latency” value (CD1 mice; 25 mg/kg, 60 min)?
A: 2.6 secs and 3.0 secs and 3.5 secs (2×) and 3.2 secs and 4.0 secs and 2.9 secs and 2.8 secs

Q: And the “%MPE” value (CD1 mice; 25 mg/kg, 150 min)?
A: 2.66 %MPE

Q: What about the “Tail flick (%MPE), average” value (CD1 mice; 25 mg/kg, 150 min) of the same compound?
A: -0.273 %MPE

Q: And the “Tail flick latency in secs, av” value (CD1 mice; 25 mg/kg, 150 min)?
A: 2.9 s

Q: What about the “Tail flick (%MPE)” value (CD1 mice; 25 mg/kg, 150 min) of the same compound?
A: -10.0 %MPE and 3.1 %MPE and 2.8 %MPE and -5.0 %MPE and 4.7 %MPE and 2.9 %MPE and -0.7 %MPE and 0.0 %MPE

Q: What about the “Tail flick latency” value (CD1 mice; 25 mg/kg, 150 min) of the same compound?
A: 2.3 secs and 3.7 secs and 3.0 secs and 2.6 secs and 2.9 secs (2×) and 3.3 secs and 2.5 secs
